According to patent US20050215609A1, “Novel uses of prostaglandin d2, prostaglandin d2 agonist and prostaglandin d2 antagonist” (priority 2002, published 2005):
Structures can show the parent of a compound that is named as a salt.

What was measured:
Male ddY mice [1] = assay: Anorexigenic action of PGD2 antagonist, food intake of mice after ICV administration (Experiment 3 (1)); type: in vivo; settings: BW A868C 0.72 and 7.2 μg/mouse
Protocol: (§1) The weight of food pellets was measured before and after ICV injection and cumulative food intake was calculated.
The PGD2 antagonist used in Experiment 2, i.e., (±) 3-benzyl-5-(6-carboxyhexyl)-1-(2-cyclohexyl-2-hydroxyethylamino)hydantoin (BW A868C, Sigma-Aldrich), was used to investigate anorexigenic action in mice. The compound was administered to mice via ICV injection (0.72 and 7.2 μg/mouse) as described in Experiment 1, and the food intake was compared with the group that received the vehicle (ACSF).

PGD2 receptor = molecular target: T1, PGD2 receptor (Mus musculus, UniProt P70263); assay: Effect of PGD2 antagonist on the orexigenic action of PGD2, combined ICV administration (Experiment 2); type: in vivo; settings: mice, two hours after administration
T1 construct: injected into the third cerebral ventricle; from tissue; host or cells: living ddY mouse, brain (ICV injection into the third cerebral ventricle)
T1 sequence (P70263 1-357): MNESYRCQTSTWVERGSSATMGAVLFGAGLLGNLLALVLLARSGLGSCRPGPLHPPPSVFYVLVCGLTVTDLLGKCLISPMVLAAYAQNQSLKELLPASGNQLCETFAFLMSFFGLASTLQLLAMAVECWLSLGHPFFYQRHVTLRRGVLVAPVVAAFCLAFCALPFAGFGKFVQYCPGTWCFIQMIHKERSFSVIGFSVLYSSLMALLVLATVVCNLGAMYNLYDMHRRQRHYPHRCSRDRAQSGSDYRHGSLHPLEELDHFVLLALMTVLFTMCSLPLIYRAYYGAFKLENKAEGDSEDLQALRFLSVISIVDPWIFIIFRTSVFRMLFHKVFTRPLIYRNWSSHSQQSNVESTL
Protocol: as §1
(§2) Values were expressed as the mean ± SEM. Analysis of variance (ANOVA) followed by Bonferroni's t-test was used to assess differences among groups. P values less than 0.05 were considered significant.
The groups, one of which was administered PGD2 alone and the other received combined administration of PGD2/PGD2 antagonist, were used to investigate the effect of PGD2 antagonist on the orexigenic action of PGD2. PGD2 antagonist, (±) 3-benzyl-5-(6-carboxyhexyl)-1-(2-cyclohexyl-2-hydroxyethylamino)hydantoin (BW A868C, Sigma-Aldrich) was used.

SD rat [2] = assay: Cumulative food intake of fasted SD rat after ICV administration (Experiment 3 (2), Table 1); type: in vivo; settings: SD rat fasted 24 hours, 100 μg
Protocol: as §1, §2
(§3) The PGD2 antagonist, (Z)-7-[(1R,2R,3S,5S)]-2-(5-hydroxybenzo[b]thiophene-3-ylcarbonylamino)-10-norpinane-3-yl]heptan-5-enonic acid (formula IA-a1) was used to investigate anorexigenic action […]. The sodium salt of this compound was administered to SD rat, fasted for 24 hours, via ICV injection as described above (dosage: 0.1, 1, 10, 100 μg/rat), and the food intake was compared with the group that received vehicle (5% DMSO in saline).

SD rat [3] = assay: Cumulative food intake of SD rat after intraperitoneal administration (Experiment 3 (2), Table 2); type: in vivo; settings: i.p., 30 mg/kg
Protocol: as §1, §2
Also, another group of SD rat was administered the test compound via intraperitoneal administration (30 mg/kg) and the food intake was compared with the group that received vehicle (5% DMSO in saline).

[4] = Changes in body weight of fasted SD rat after ICV administration (Experiment 3 (2), Table 1); type: in vivo; settings: SD rat fasted 24 hours, 100 μg
Protocol: as §3

Male ddY mice [5] = assay: Food intake of mice after ICV administration of PGD2 (Experiment 1); type: in vivo, mouse
Protocol: as §1, §2

## O=C(O)CCCCCCC1C(=O)N(Cc2ccccc2)C(=O)N1NCC(O)C1CCCCC1 (racemic) [BW A868C, (±)-3-benzyl-5-(6-carboxyhexyl)-1-(2-cyclohexyl-2-hydroxyethylamino)hydantoin]
Male ddY mice [1]
  food intake compared to vehicle: inhibition of food intake was observed
PGD2 receptor
  effect on the orexigenic action of PGD2 (food intake): inhibited the orexigenic action of PGD2 completely

## CC1(C)C2CC1[C@H](NC(=O)c1csc3ccc(O)cc13)[C@@H](C/C=C\CCCC(=O)O)C2 (some centres unmarked) [Compund (IA-a1) (Na salt)]
SD rat [2]; 1 hr.
  Cululative Food intake (g) 1 hr.: 5.18 ± 0.47 g
SD rat [2]; 2 hr.
  Cululative Food intake (g) 2 hr.: 6.15 ± 0.50 g
SD rat [2]; 4 hr.
  Cululative Food intake (g) 4 hr.: 6.86 ± 0.49 g
SD rat [2]; 24 hr.
  Cululative Food intake (g) 24 hr.: 25.71 ± 1.30 g
SD rat [3]; 1 hr.
  Cululative Food intake (g) 1 hr.: 2.38 ± 0.41 g
SD rat [3]; 2 hr.
  Cululative Food intake (g) 2 hr.: 4.30 ± 0.67 g
SD rat [3]; 4 hr.
  Cululative Food intake (g) 4 hr.: 7.85 ± 0.66 g
SD rat [3]; 24 hr.
  Cululative Food intake (g) 24 hr.: 32.05 ± 1.09 g
[4]; 1 hr.
  Changes in body weght (g) 1 hr.: 0.89 ± 0.79 g
[4]; 2 hr.
  Changes in body weght (g) 2 hr.: 2.89 ± 1.28 g
[4]; 4 hr.
  Changes in body weght (g) 4 hr.: 1.07 ± 1.47 g
[4]; 24 hr.
  Changes in body weght (g) 24 hr.: 7.20 ± 2.60 g

## CCCCC[C@H](O)/C=C/[C@H]1C(=O)C[C@H](O)[C@@H]1C/C=C\CCCC(=O)O [PGD2, prostaglandin D2]
Male ddY mice [5]; 0.2 μg PGD2/mouse, 60 and 120 min after the injection
  food intake versus control group: significant increase in food intake
Male ddY mice [5]; 2 μg PGD2/mouse, 60 and 120 min after the injection
  food intake versus control group: significant increase in food intake
Male ddY mice [5]; 20 μg PGD2/mouse
  food intake versus control group: the food intake was temporally inhibited shortly after the injection, but the food intake was increased thereafter
